Laboratory results published in patent publication US11149024B2, “Synthesis of Mcl-1 inhibitor” (ASTRAZENECA AB, priority 2017, dated 2021).

What was measured:
Assay type in all cases: cell-based
[1] = tested on: MV4; 11 (acute myeloid leukemia) cells; assay: Caspase Activity assay (Caspase-Glo 3/7), MV4; 11; conditions: Homo sapiens, 11 cells, 6 h treatment, induction of apoptosis
Method: (§1) Caspase Activity assay: This is a cell assay to measure the induction of apoptosis in MOLP-8 (multiple myeloma), KMS-12-BM (multiple myeloma), MV4; 11 (acute myeloid leukemia), and NCI-H23 (non-small cell lung cancer) cells after 6 h treatment with Mcl-1 inhibitors. On the first day, 3000 (MOLP-8, KMS-12-BM, MV4; 11) or 1250 (NCI-H23) cells/well were seeded with 50 μL of growth media (IMDM+10% FBS+2 mM L-Glu for MV4; 11 and RPMI-1640+10% FBS+2 mM L-Glu for all others) in 384-well white microplates, and incubated overnight (37° C., 5% C02, 80% RH). On the second day, the cells were treated with Compound I using an ECHO acoustic liquid handler (10 point half-log serial dilution, 31.5 μM top concentration, 0.3% final DMSO concentration). After 6 h incubation (37° C., 5% C02, 80% RH), 25 μL of Caspase-Glo 3/7 reagent (Promega) was added into each well, and plates were incubated at room temperature for 30 min protected from light. Luminescence was recorded using an Infinite M200 microplate reader (Tecan) with a 100 ms integration time.

[2] = tested on: KMS-12-BM (multiple myeloma) cells; assay: Caspase Activity assay (Caspase-Glo 3/7), KMS-12-BM; conditions: Homo sapiens; KMS-12-BM cells, 6 h treatment, induction of apoptosis
Method: as §1

[3] = tested on: NCI-H23 (non-small cell lung cancer) cells; assay: Caspase Activity assay (Caspase-Glo 3/7), NCI-H23; conditions: Homo sapiens, 6 h treatment, induction of apoptosis
Method: as §1

[4] = tested on: MOLP-8 (multiple myeloma) cells; assay: Caspase Activity assay (Caspase-Glo 3/7), MOLP-8; conditions: Homo sapiens; MOLP-8 cells, 6 h treatment, induction of apoptosis
Method: as §1

EC50 [1]: 20 nM | EC50 [2]: 43 nM | EC50 [3]: 193 nM | EC50 [4]: 30 nM
Compound: Cc1c2c(nn1C)CSCc1cc(n(C)n1)CSc1cc(c3ccccc3c1)OCCCc1c(C(=O)O)n(C)c3c-2c(Cl)ccc13 (atropisomer, axis not shown; (Ra)) [Compound I, (Ra)-(+)-17-chloro-5,13,14,22-tetramethyl-28-oxa-2,9-dithia-5,6,12,13,22-pentaazaheptacyclo[27.7.1.1^4,7.0^11,15.0^16,21.0^20,24.0^30,35]octatriaconta-1(37),4(38),6,11,14,16,18,20,23,29,31,33,35-tridecaene-23-carboxylic acid]
